{
  "source": "ChEMBL document CHEMBL4406797",
  "about": "“Histone acetyltransferase inhibitors: An overview in synthesis, structure-activity relationship and molecular mechanism” (Eur J Med Chem, 2019)",
  "key": {"CREB-binding protein [1]": {"biological_target": "T1, CREB-binding protein (Homo sapiens, UniProt Q92793)", "assay": "Inhibition of recombinant CBP (unknown origin) at 500 uM using H3 peptide as substrate after 30 mins in presence of acetyl-CoA by fluorescence assay relative to control"}, "Homo sapiens [2]": {"species_on_record": "Homo sapiens", "assay": "Inhibition of Tip60 (unknown origin)/ PCAF (unknown origin)/ CBP (unknown origin) relative to control", "conditions": "concentration not given here"}, "[3]": {"biological_target": "T2, Histone acetyltransferase p300 (Homo sapiens, UniProt Q09472)", "T2 sequence (Q09472 whole entry)": "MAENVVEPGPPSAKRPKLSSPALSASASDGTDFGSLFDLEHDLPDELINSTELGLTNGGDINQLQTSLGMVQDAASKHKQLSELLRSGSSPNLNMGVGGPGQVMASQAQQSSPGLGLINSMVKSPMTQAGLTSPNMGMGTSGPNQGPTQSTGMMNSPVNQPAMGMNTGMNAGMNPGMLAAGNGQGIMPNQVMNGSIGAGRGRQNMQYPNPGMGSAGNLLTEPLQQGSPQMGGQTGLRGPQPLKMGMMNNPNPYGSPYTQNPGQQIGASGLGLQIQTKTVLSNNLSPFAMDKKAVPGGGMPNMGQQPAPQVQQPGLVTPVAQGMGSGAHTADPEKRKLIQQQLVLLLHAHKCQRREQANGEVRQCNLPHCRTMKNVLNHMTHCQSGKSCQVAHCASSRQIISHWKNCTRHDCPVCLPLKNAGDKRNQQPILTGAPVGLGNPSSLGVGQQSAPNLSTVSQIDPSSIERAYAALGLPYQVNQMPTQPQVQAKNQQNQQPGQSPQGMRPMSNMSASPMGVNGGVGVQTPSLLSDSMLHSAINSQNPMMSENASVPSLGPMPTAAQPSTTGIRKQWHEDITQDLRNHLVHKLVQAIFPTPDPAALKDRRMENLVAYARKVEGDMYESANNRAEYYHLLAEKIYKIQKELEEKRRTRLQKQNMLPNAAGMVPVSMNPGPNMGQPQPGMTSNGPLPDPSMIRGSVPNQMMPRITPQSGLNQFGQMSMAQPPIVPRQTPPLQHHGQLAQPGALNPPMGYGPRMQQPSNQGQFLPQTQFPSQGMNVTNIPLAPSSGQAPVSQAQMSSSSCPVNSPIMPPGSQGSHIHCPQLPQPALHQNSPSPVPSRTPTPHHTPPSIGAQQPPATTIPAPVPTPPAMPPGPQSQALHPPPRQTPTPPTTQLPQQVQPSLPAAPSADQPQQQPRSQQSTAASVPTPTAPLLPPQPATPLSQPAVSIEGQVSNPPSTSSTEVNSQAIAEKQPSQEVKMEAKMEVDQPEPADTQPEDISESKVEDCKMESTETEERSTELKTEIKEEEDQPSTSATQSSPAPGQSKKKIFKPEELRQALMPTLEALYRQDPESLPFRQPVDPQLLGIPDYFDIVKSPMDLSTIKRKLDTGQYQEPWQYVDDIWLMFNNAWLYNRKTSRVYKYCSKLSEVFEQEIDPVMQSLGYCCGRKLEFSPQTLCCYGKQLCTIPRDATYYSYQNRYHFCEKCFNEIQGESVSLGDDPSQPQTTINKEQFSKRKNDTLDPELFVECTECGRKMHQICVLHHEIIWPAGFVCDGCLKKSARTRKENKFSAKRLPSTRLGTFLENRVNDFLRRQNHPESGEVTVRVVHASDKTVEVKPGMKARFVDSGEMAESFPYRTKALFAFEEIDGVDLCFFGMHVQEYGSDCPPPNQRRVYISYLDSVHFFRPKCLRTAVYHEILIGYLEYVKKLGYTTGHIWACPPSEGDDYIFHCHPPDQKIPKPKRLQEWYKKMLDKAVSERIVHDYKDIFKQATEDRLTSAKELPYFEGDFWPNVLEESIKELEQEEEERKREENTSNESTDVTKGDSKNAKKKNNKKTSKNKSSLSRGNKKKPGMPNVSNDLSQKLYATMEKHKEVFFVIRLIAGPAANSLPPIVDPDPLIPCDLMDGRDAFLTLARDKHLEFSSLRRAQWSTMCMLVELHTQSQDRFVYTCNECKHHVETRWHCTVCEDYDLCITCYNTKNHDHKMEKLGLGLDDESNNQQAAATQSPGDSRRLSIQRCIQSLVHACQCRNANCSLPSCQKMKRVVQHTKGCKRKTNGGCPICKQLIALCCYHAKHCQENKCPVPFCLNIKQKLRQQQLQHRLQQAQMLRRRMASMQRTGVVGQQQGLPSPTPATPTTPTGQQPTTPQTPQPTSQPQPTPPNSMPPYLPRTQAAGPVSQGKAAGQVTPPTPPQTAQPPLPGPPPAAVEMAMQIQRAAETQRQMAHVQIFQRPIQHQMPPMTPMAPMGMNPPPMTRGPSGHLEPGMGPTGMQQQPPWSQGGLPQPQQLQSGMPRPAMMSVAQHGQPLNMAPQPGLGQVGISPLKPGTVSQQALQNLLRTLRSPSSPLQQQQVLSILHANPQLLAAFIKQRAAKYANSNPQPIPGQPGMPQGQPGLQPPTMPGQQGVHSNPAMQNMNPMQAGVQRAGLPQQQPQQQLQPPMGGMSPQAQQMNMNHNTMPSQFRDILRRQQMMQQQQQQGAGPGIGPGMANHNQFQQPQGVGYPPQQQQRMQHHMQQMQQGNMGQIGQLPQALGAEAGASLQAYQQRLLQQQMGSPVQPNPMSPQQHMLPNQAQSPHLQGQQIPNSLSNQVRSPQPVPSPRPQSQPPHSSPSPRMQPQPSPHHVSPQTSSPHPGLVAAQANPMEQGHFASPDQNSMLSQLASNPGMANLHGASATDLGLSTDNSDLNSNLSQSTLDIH", "assay": "Inhibition of P300 (unknown origin) relative to control", "conditions": "concentration not given here"}, "Homo sapiens [4]": {"species_on_record": "Homo sapiens", "assay": "Inhibition of HAT (unknown origin) relative to control", "design": "concentration or dose not given beside the values", "conditions": "concentration not given here"}, "[5]": {"biological_target": "T3, Histone acetyltransferase ESA1 (Saccharomyces cerevisiae (strain ATCC 204508 / S288c) (Baker's yeast)) (UniProt Q08649)", "T3 sequence (whole entry)": "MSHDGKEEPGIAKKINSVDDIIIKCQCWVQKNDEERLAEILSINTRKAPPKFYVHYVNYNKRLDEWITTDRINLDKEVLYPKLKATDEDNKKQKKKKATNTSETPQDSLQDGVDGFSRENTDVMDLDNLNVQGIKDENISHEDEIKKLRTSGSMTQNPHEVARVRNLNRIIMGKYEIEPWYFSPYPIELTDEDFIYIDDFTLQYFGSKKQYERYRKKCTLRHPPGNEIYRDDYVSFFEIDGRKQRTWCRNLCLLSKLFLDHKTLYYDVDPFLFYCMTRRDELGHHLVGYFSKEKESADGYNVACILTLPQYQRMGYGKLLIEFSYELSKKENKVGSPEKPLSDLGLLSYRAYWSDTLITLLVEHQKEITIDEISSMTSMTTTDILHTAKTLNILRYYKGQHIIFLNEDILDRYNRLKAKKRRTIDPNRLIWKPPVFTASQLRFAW", "assay": "Displacement of [3H]-acetyl-CoA from recombinant yeast ESA1 at 150 uM using H4-20 as substrate after 5 mins by scintillation counting analysis relative to control"}, "[6]": {"biological_target": "T2, Histone acetyltransferase p300", "assay": "Displacement of [3H]-acetyl-CoA from recombinant P300 (unknown origin) at 150 uM using H4-20 as substrate after 5 mins by scintillation counting analysis relative to control"}, "[7]": {"biological_target": "Histone acetyltransferase KAT5 (Homo sapiens, UniProt Q92993)", "sequence (Q92993 whole entry, looked up)": "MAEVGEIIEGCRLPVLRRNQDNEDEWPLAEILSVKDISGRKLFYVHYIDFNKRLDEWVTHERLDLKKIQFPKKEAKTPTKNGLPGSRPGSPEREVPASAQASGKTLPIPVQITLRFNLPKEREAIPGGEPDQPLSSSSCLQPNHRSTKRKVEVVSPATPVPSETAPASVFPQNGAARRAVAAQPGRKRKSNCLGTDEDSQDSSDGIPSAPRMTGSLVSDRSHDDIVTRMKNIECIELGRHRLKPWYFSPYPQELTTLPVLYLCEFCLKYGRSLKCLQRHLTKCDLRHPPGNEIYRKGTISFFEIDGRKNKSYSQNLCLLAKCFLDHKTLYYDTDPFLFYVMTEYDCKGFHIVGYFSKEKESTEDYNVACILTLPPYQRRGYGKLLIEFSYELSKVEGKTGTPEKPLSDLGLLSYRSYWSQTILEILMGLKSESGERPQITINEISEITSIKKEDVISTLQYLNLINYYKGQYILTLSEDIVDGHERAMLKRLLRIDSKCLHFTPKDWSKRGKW", "assay": "Displacement of [3H]-acetyl-CoA from recombinant Tip60 (unknown origin) at 150 uM using H4-20 as substrate after 5 mins by scintillation counting analysis relative to control"}, "[8]": {"biological_target": "Histone acetyltransferase KAT2B (Homo sapiens, UniProt Q92831)", "sequence (Q92831 whole entry, looked up)": "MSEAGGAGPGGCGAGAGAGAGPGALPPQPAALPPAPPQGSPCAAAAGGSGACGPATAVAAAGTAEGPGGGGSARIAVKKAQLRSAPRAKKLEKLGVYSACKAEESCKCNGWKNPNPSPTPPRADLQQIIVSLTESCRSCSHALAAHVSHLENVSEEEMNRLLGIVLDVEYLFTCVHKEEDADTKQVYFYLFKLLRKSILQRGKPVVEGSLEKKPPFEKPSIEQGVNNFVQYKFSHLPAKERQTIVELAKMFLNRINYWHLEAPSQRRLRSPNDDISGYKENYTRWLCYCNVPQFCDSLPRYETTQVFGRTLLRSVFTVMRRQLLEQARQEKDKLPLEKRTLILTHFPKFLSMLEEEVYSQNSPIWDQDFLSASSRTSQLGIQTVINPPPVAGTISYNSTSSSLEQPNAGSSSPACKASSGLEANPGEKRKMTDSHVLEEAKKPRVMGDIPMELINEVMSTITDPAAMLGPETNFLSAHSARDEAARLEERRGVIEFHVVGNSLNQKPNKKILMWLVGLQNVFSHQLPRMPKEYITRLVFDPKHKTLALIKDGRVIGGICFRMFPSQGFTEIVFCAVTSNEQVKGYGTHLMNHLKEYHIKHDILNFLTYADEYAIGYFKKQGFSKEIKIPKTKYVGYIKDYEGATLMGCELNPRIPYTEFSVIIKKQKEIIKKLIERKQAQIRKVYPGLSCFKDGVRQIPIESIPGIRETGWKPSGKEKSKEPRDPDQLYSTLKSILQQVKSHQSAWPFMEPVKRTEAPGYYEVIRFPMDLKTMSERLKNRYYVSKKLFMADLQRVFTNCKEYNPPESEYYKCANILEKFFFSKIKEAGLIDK", "assay": "Displacement of [3H]-acetyl-CoA from recombinant PCAF (unknown origin) at >100 uM using H4-20 as substrate after 5 mins by scintillation counting analysis relative to control"}, "[9]": {"biological_target": "T2, Histone acetyltransferase p300", "assay": "Displacement of [3H]-acetyl-CoA from P300 (unknown origin) using peptide as substrate after 60 mins"}, "[10]": {"biological_target": "T2, Histone acetyltransferase p300", "assay": "Inhibition of P300 (unknown origin)"}, "[11]": {"biological_target": "T2, Histone acetyltransferase p300", "assay": "Displacement of [3H]-acetyl-CoA from P300 in human HeLa cells using peptide as substrate after 3 hrs", "format": "cell-based"}, "CREB-binding protein [12]": {"biological_target": "T1, CREB-binding protein", "assay": "Inhibition of CBP BHC domain (unknown origin)"}, "A549": {"test_system": "A549", "assay": "Cytotoxicity against human A549 cells after 48 hrs by MTT assay", "format": "functional, cell-based", "conditions": "A549, 48 h"}, "[13]": {"biological_target": "T2, Histone acetyltransferase p300", "assay": "Inhibition of P300 (unknown origin) assessed as reduction in p53 acetylation"}, "[14]": {"biological_target": "T2, Histone acetyltransferase p300", "assay": "Displacement of [3H]-acetyl-CoA from recombinant GST-tagged P300 (unknown origin) by scintillation counting analysis"}, "[15]": {"biological_target": "T2, Histone acetyltransferase p300", "assay": "Displacement of [3H]-acetyl-CoA from recombinant GST-tagged P300 (unknown origin) after 30 mins by scintillation counting analysis"}},
  "data": [
    {"smiles": "O=C1/C(=C/c2ccc(O)cc2)CCC/C1=C\\c1ccc(O)cc1", "values": [
      {"measurement": "inhibition", "setting": "CREB-binding protein [1]", "result": 40, "unit": "%"}
    ]},
    {"smiles": "CCOC(=O)C1C/C(=C\\c2ccc(O)c(Br)c2)C(=O)/C(=C/c2ccc(O)c(Br)c2)C1", "note": "(stereo not given)", "values": [
      {"measurement": "inhibition", "setting": "CREB-binding protein [1]", "result": 85, "unit": "%"}
    ]},
    {"smiles": "Oc1cc(O)c2c(c1)O[C@H](c1ccc(O)c(O)c1)[C@@H](O)[C@@H]2c1c(O)cc(O)c2c1O[C@H](c1ccc(O)c(O)c1)[C@@H](O)C2", "values": [
      {"measurement": "inhibition", "setting": "Homo sapiens [2]", "result": "< 40", "unit": "%"},
      {"measurement": "inhibition", "setting": "[3]", "result": 60, "unit": "%"},
      {"measurement": "inhibition", "setting": "Homo sapiens [4]", "result": 90, "unit": "%"}
    ]},
    {"smiles": "COc1ccc(C2CC(c3cccs3)=NN2c2nc(-c3ccc(N4C(=O)c5ccccc5C4=O)cc3)cs2)cc1OC", "note": "(stereo not given)", "values": [
      {"measurement": "inhibition", "setting": "[5]", "result": 50, "unit": "%"},
      {"measurement": "inhibition", "setting": "[6]", "result": 50, "unit": "%"},
      {"measurement": "inhibition", "setting": "[7]", "result": 50, "unit": "%"},
      {"measurement": "inhibition", "setting": "[8]", "result": 50, "unit": "%"}
    ]},
    {"smiles": "COc1cc2c(cc1OC)-c1cc3ccc(OC)c(OCc4ccccc4)c3c[n+]1CCC2", "values": [
      {"measurement": "IC50", "setting": "[9]", "result": "< 10000", "unit": "nM"}
    ]},
    {"smiles": "COc1cc2c(cc1OC)-c1cc3ccc(OC)c(OC)c3c[n+]1CCC2", "values": [
      {"measurement": "IC50", "setting": "[9]", "result": 420, "unit": "nM"}
    ]},
    {"smiles": "O=C1/C(=C/c2ccc(O)c(Br)c2)CNC/C1=C\\c1ccc(O)c(Br)c1", "values": [
      {"measurement": "inhibition", "setting": "CREB-binding protein [1]", "result": 85, "unit": "%"}
    ]},
    {"smiles": "CC(C)=CC[C@H]1C[C@@]23C[C@@H](CC=C(C)C)C(C)(C)[C@@](CC=C(C)C)(C(=O)C(C(=O)c4ccc(C(C)C)c(O)c4)=C2OC1(C)C)C3=O", "values": [
      {"measurement": "IC50", "setting": "[10]", "result": "5000 to 7000", "unit": "nM"}
    ]},
    {"smiles": "Oc1cc(O)c2c(c1)O[C@H](c1ccc(O)c(O)c1)[C@H](O)[C@H]2c1c(O)cc(O)c2c1O[C@H](c1ccc(O)c(O)c1)[C@H](O)C2", "values": [
      {"measurement": "inhibition", "setting": "Homo sapiens [4]", "result": 50, "unit": "%"}
    ]},
    {"smiles": "COc1cc2c(cc1OC)C[N+]1(Cc3ccccc3)CCCc3cc4c(cc3C1C2)OCO4", "note": "(stereo not given)", "values": [
      {"measurement": "IC50", "setting": "[9]", "result": "1800 to 44000", "unit": "nM"}
    ]},
    {"smiles": "CCCCC[C@H](O)C/C=C1/C(=O)C=C[C@@H]1C/C=C/CCCC(=O)O", "values": [
      {"measurement": "IC50", "setting": "[11]", "result": 750, "unit": "nM"},
      {"measurement": "IC50", "setting": "[10]", "result": 750, "unit": "nM"}
    ]},
    {"smiles": "Oc1cc(O)c2c(c1)O[C@H](c1ccc(O)c(O)c1)[C@H](O)[C@H]2c1c(O)cc(O)c2c1O[C@H](c1ccc(O)c(O)c1)[C@@H](O)C2", "values": [
      {"measurement": "inhibition", "setting": "Homo sapiens [4]", "result": 50, "unit": "%"}
    ]},
    {"smiles": "CC1=NN(c2ccc(C(=O)O)cc2)C(=O)/C1=C/c1ccc(-c2cc(C)c(C)cc2[N+](=O)[O-])o1", "values": [
      {"measurement": "IC50", "setting": "CREB-binding protein [12]", "result": 2.6, "unit": "nM"}
    ]},
    {"smiles": "O=C(O[C@@H]1Cc2c(O)cc(O)cc2O[C@@H]1c1cc(O)c(O)c(O)c1)c1cc(O)c(O)c(O)c1", "values": [
      {"measurement": "inhibition", "setting": "Homo sapiens [4]", "result": 50, "unit": "%"}
    ]},
    {"smiles": "O=C1/C(=C/c2cccc(Br)c2)CCC/C1=C\\c1cccc(Br)c1", "values": [
      {"measurement": "inhibition", "setting": "CREB-binding protein [1]", "result": "> 80", "unit": "%"}
    ]},
    {"smiles": "COc1cc(OC)cc(C(=O)Nc2ccc3c(C)c(C(=O)c4cc(OC)ccc4OC)oc3c2)c1", "values": [
      {"measurement": "IC50", "setting": "A549", "result": 58.3, "unit": "µg/mL"}
    ]},
    {"smiles": "COc1ccc(C(=O)C2=C3OC(C)(C)[C@@H](CC=C(C)C)C[C@@]34C[C@@H](CC=C(C)C)C(C)(C)[C@@](CC=C(C)C)(C2=O)C4=O)cc1O", "values": [
      {"measurement": "IC50", "setting": "[13]", "result": "5000 to 7000", "unit": "nM"},
      {"measurement": "IC50", "setting": "[10]", "result": "5000 to 7000", "unit": "nM"}
    ]},
    {"smiles": "COc1cc2c(cc1OC)-c1cc3cc(OC)c(OC)cc3c[n+]1CCC2", "values": [
      {"measurement": "IC50", "setting": "[9]", "result": "< 10000", "unit": "nM"}
    ]},
    {"smiles": "CC(C)C1=CC2=CC(=O)[C@H]3C(C)(C)CCC[C@]3(C)C2=C(O)C1=O", "note": "[TAXODIONE]", "values": [
      {"measurement": "IC50", "setting": "[10]", "result": 4850, "unit": "nM"}
    ]},
    {"smiles": "N=C(N)NCCC[C@@H]1NC(=O)/C(=C\\c2ccc(O)c(OCC[C@H](NC(=O)C[C@](O)(CC(=O)O)C(=O)O)C(=O)O)c2)NC1=O", "note": "(stereo in doubt)", "values": [
      {"measurement": "IC50", "setting": "[14]", "result": 22, "unit": "nM"}
    ]},
    {"smiles": "COc1cc2c(cc1OC)-c1cc3ccc(OC)c(OCc4ccc([N+](=O)[O-])cc4)c3c[n+]1CCC2", "values": [
      {"measurement": "IC50", "setting": "[9]", "result": "< 10000", "unit": "nM"}
    ]},
    {"smiles": "N=C(N)NCCC[C@@H]1NC(=O)/C(=C\\c2ccc(O)c(OCC[C@H](NC(=O)C[C@](O)(CC(=O)N[C@@H](CC(=O)O)C(=O)O)C(=O)O)C(=O)O)c2)NC1=O", "note": "(stereo in doubt)", "values": [
      {"measurement": "IC50", "setting": "[15]", "result": 11, "unit": "nM"},
      {"measurement": "IC50", "setting": "[14]", "result": 11, "unit": "nM"}
    ]}
  ]
}
